Test results published in patent US8476265B2, “Compounds-801” (AstraZeneca AB, priority 2010, dated 2013).
Each block holds one molecule with its values, some of them ahead of it.

Tests used:
Adrenergic β2 = biological target: T1, Adrenergic β2 (Homo sapiens, UniProt P07550); experiment: Adrenergic β2 mediated cAMP production in H292 cells, single concentration 1 μM; type: cell-based; details: cAMP as percentage of the maximum response generated by 1E-07M formoterol; for percent of formoterol maximum response at 1 µM: NCI-H292, 1 μM compound, read-out: β2 % effect @1 uM
T1 construct: Adherent H292 cells are removed from tissue culture flasks by treatment with Accutase™ cell detachment solution; endogenous in cells; host or cells: H292 cells
T1 sequence (P07550 whole entry): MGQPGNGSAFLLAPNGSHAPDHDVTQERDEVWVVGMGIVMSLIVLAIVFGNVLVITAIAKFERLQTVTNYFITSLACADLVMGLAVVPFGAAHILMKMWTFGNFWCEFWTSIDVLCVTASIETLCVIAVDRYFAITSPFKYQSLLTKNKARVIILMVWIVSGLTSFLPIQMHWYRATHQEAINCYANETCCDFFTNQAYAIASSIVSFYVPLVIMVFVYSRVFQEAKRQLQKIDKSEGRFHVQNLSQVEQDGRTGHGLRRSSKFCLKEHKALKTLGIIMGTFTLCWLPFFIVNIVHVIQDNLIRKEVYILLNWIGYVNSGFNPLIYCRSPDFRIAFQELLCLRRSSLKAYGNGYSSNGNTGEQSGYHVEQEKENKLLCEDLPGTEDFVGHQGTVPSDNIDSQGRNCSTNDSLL
Method: The following experimental procedure was used to measure the beta-2% effect at 1 μM for the compounds of Examples 99-175. Adrenergic p2 Mediated cAMP Production Cell Preparation
H292 cells are grown in 225 cm2 flasks incubator at 37° C., 5% CO2 in RPMI medium containing 10% (v/v) FBS (foetal bovine serum) and 2 mM L-glutamine.
Compounds are prepared by an initial first dilution into DMSO to give 1 mM stock concentration. This is followed by a 1 in 10 dilution of the stock concentration (10 μl stock compound +90 μl DMSO) to give 0.1 mM compound. A compound addition plate is prepared by making a further 1 in 25 dilution in assay buffer (HBSS solution containing 10 mM HEPES pH7.4 and 5 mM glucose) containing 4% dimethylsulfoxide. The final compound concentration in assay is 1 μM.
Adherent H292 cells are removed from tissue culture flasks by treatment with Accutase™ cell detachment solution for 15 minutes. Flasks are incubated for 15 minutes in a humidified incubator at 37° C., 5% CO2. Detached cells are re-suspended in RPMI media (containing 10% (v/v) FBS and 2 mM L-glutamine) at 0.1×10^6 cells per mL. 10000 cells in 100 μL are added to each well of a tissue-culture-treated 96-well plate and the cells incubated overnight in a humidified incubator at 37° C., 5% CO2. The culture media is removed and cells are washed twice with 100 μL assay buffer and replaced with 50 μL assay buffer (HBSS solution containing 10 mM HEPES pH7.4 and 5 mM glucose). Cells are rested at room temperature for 20 minutes after which time 25 μL of rolipram (1.2 mM made up in assay buffer) is added. Cells are incubated with rolipram for 10 minutes after which time 25 μl test compounds are added and the cells are incubated for 60 minutes at room temperature. The final rolipram concentration in the assay is 300 μM and final vehicle concentration is 1% (v/v) dimethylsulphoxide. The reaction is stopped by removing supernatants, washing once with 100 μL assay buffer and replacing with 50 μL lysis buffer. The cell monolayer is frozen at −80° C. for 30 minutes (or overnight).
AlphaScreen™ cAMP Detection
The concentration of cAMP (cyclic adenosine monophosphate) in the cell lysate is determined using AlphaScreen™ methodology. The frozen cell plate is thawed for 20 minutes on a plate shaker then 10 μL of the cell lysate is transferred to a 96-well white plate. 40 μl of mixed AlphaScreen™ detection beads (containing equal volumes of donor beads (pre-incubated with biotinylated cAMP in the dark for 30 minutes) and acceptor beads is added to each well and the plate incubated at room temperature for 3 hours in the dark. The AlphaScreen™ signal is measured using an EnVision spectrophotometer (Perkin-Elmer Inc.) with the recommended manufacturer's settings. Concentration of cAMP produced per well were calculated with reference to the cAMP standard curve determined in the same experiment and expressed as a percentage of the maximum response generated by 1E-07M formoterol.

[1] = biological target: T2, human muscarinic acetylcholine M3 receptor (Homo sapiens, UniProt P20309); experiment: Muscarinic 3 receptor binding assay ([3H]NMS competition, SPA), single concentration 1 μM; details: 1 μM compound; % inhibition specific [3H]-NMS binding
T2 construct: expressed in transfected cells; host or cells: CHO-K1 (Chinese Hamster Ovary) cell membranes
T2 sequence (P20309 whole entry): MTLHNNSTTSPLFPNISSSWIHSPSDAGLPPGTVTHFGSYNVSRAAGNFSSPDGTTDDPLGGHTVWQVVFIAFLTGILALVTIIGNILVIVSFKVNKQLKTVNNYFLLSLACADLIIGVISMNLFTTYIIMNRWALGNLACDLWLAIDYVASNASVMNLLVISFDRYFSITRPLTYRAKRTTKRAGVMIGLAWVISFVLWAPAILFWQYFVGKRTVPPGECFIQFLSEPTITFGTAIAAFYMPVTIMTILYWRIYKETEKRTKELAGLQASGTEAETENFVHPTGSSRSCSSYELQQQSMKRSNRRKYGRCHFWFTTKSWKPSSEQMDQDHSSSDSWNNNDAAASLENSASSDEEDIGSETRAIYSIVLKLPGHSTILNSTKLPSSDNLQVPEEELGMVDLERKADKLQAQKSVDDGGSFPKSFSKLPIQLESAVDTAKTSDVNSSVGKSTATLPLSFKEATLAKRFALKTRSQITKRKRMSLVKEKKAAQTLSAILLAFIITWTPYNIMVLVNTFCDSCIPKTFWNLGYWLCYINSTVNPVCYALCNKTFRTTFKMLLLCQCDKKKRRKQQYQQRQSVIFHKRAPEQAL
Method: The following experimental procedure was used to determine the M3% inhibition at 1 μM of the compounds of Examples 99-175
Muscarinic 3 Receptor Binding Assay
The activity (% inhibition specific binding) of compounds on the M3 receptor is determined by competition binding of [^3H]N-methyl scopolamine (NMS) to CHO-K1 (Chinese Hamster Ovary) cell membranes expressing the human muscarinic acetylcholine M3 receptor (M3-ACh) in a scintillation proximity assay (SPA) format. SPA beads are precoated with membranes and then incubated at 2 mg of beads per well with 1 μM compound of the invention, [^3H]NMS at 0.1 nM, quarter Kd (experimentally determined dissociation constant) and assay buffer (20 mM HEPES pH 7.4 containing 5 mM MgCl2 and 0.1% (w/v) bovine serum albumin). The assay is conducted in a final volume of 200 μL, in the presence of 1% (v/v) dimethyl sulphoxide (DMSO). Total binding of [^3H]NMS is determined in the absence of competing compound and non-specific binding of [^3H]NMS is determined in the presence of 1 μM atropine. The plates are incubated for 16 hours at room temperature and then read on Wallac Microbeta™ using a normalised ^3H protocol. The compound activity at 1 μM, defined as % inhibition specific [^3H]-NMS binding, is determined.

percent of formoterol maximum response at 1 µM (Adrenergic β2): 103%
inhibition at 1 µM [1]: 92%
SMILES: O=C1COc2c(CCNCCN(C(=O)CCOCCc3cccc(CN4CCC5(CC4)CN(C(=O)c4cccc6[nH]ccc46)CCO5)c3)C3CCCCC3)ccc(O)c2N1 [Example 168, 3-(3-((4-(1H-Indole-4-carbonyl)-1-oxa-4,9-diazaspiro[5.5]undecan-9-yl)methyl)phenethoxy)-N-cyclohexyl-N-(2-(2-(5-hydroxy-3-oxo-3,4-dihydro-2H-benzo[b][1,4]oxazin-8-yl)ethylamino)ethyl)propanamide]

percent of formoterol maximum response at 1 µM (Adrenergic β2): 109%
inhibition at 1 µM [1]: 90%
SMILES: O=C1COc2c(CCNCCN(C(=O)CCOCCc3cccc(CN4CCC5(CC4)CN(C(=O)CCc4nc6ccccc6[nH]4)CCO5)c3)C3CCCCC3)ccc(O)c2N1 [Example 103, 3-(3-((4-(3-(1H-Benzo[d]imidazol-2-yl)propanoyl)-1-oxa-4,9-diazaspiro[5.5]undecan-9-yl)methyl)phenethoxy)-N-cyclohexyl-N-(2-(2-(5-hydroxy-3-oxo-3,4-dihydro-2H-benzo[b][1,4]oxazin-8-yl)ethylamino)ethyl)propanamide]

percent of formoterol maximum response at 1 µM (Adrenergic β2): 97%
inhibition at 1 µM [1]: 98%
SMILES: O=C1COc2c(CCNCCN(C(=O)CCOCCc3cccc(CN4CCC5(CC4)CN(C(=O)c4c(F)cccc4F)CCO5)c3)C3CCCCC3)ccc(O)c2N1 [Example 163, N-Cyclohexyl-3-(3-((4-(2,6-difluorobenzoyl)-1-oxa-4,9-diazaspiro[5.5]undecan-9-yl)methyl)phenethoxy)-N-(2-(2-(5-hydroxy-3-oxo-3,4-dihydro-2H-benzo[b][1,4]oxazin-8-yl)ethylamino)ethyl)propanamide]

percent of formoterol maximum response at 1 µM (Adrenergic β2): 107%
inhibition at 1 µM [1]: 96%
SMILES: CCOc1ccccc1C(=O)N1CCOC2(CCN(Cc3cccc(CCOCCC(=O)N(CCNCCc4ccc(O)c5c4OCC(=O)N5)C4CCCCC4)c3)CC2)C1 [Example 111, N-Cyclohexyl-3-(3-((4-(2-ethoxybenzoyl)-1-oxa-4,9-diazaspiro[5.5]undecan-9-yl)methyl)phenethoxy)-N-(2-(2-(5-hydroxy-3-oxo-3,4-dihydro-2H-benzo[b][1,4]oxazin-8-yl)ethylamino)ethyl)propanamide]

percent of formoterol maximum response at 1 µM (Adrenergic β2): 96%
inhibition at 1 µM [1]: 100%
SMILES: O=C1COc2c(CCNCCN(C(=O)CCOCCc3cccc(CN4CCC5(CC4)CN(C(=O)[C@H](O)c4ccccc4)CCO5)c3)C3CCCCC3)ccc(O)c2N1 [Example 166, (R)-N-Cyclohexyl-3-(3-((4-(2-hydroxy-2-phenylacetyl)-1-oxa-4,9-diazaspiro[5.5]undecan-9-yl)methyl)phenethoxy)-N-(2-(2-(5-hydroxy-3-oxo-3,4-dihydro-2H-benzo[b][1,4]oxazin-8-yl)ethylamino)ethyl)propanamide]

percent of formoterol maximum response at 1 µM (Adrenergic β2): 94%
inhibition at 1 µM [1]: 100%
SMILES: Cc1ccccc1CC(=O)N1CCOC2(CCN(Cc3cccc(CCOCCC(=O)N(CCNCCc4ccc(O)c5c4OCC(=O)N5)C4CCCCC4)c3)CC2)C1 [Example 139, N-Cyclohexyl-N-(2-(2-(5-hydroxy-3-oxo-3,4-dihydro-2H-benzo[b][1,4]oxazin-8-yl)ethylamino)ethyl)-3-(3-((4-(2-o-tolylacetyl)-1-oxa-4,9-diazaspiro[5.5]undecan-9-yl)methyl)phenethoxy)propanamide]

Continued, molecule first:

SMILES: O=C1COc2c(CCNCCN(C(=O)CCOCCc3cccc(CN4CCC5(CC4)CN(C(=O)C4(c6ccccc6)CC4)CCO5)c3)C3CCCCC3)ccc(O)c2N1 [Example 113, N-Cyclohexyl-N-(2-(2-(5-hydroxy-3-oxo-3,4-dihydro-2H-benzo[b][1,4]oxazin-8-yl)ethylamino)ethyl)-3-(3-((4-(1-phenylcyclopropanecarbonyl)-1-oxa-4,9-diazaspiro[5.5]undecan-9-yl)methyl)phenethoxy)propanamide]
percent of formoterol maximum response at 1 µM (Adrenergic β2): 112%
inhibition at 1 µM [1]: 100%

SMILES: O=C1COc2c(CCNCCN(C(=O)CCOCCc3cccc(CN4CCC5(CC4)CN(C(=O)Cc4ccccc4F)CCO5)c3)C3CCCCC3)ccc(O)c2N1 [Example 169, N-Cyclohexyl-3-(3-((4-(2-(2-fluorophenyl)acetyl)-1-oxa-4,9-diazaspiro[5.5]undecan-9-yl)methyl)phenethoxy)-N-(2-(2-(5-hydroxy-3-oxo-3,4-dihydro-2H-benzo[b][1,4]oxazin-8-yl)ethylamino)ethyl)propanamide]
percent of formoterol maximum response at 1 µM (Adrenergic β2): 102%
inhibition at 1 µM [1]: 101%

SMILES: CCOc1ncccc1C(=O)N1CCOC2(CCN(Cc3cccc(CCOCCC(=O)N(CCNCCc4ccc(O)c5c4OCC(=O)N5)C4CCCCC4)c3)CC2)C1 [Example 101, N-Cyclohexyl-3-(3-((4-(2-ethoxynicotinoyl)-1-oxa-4,9-diazaspiro[5.5]undecan-9-yl)methyl)phenethoxy)-N-(2-(2-(5-hydroxy-3-oxo-3,4-dihydro-2H-benzo[b][1,4]oxazin-8-yl)ethylamino)ethyl)propanamide]
percent of formoterol maximum response at 1 µM (Adrenergic β2): 105%
inhibition at 1 µM [1]: 95%

SMILES: O=C1COc2c(CCNCCN(C(=O)CCOCCc3cccc(CN4CCC5(CC4)CN(C(=O)CC4(O)CCCCCC4)CCO5)c3)C3CCCCC3)ccc(O)c2N1 [Example 148, N-Cyclohexyl-N-(2-(2-(5-hydroxy-3-oxo-3,4-dihydro-2H-benzo[b][1,4]oxazin-8-yl)ethylamino)ethyl)-3-(3-((4-(2-(l-hydroxycycloheptyl)acetyl)-1-oxa-4,9-diazaspiro[5.5]undecan-9-yl)methyl)phenethoxy)propanamide]
β2 % effect @1 uM (Adrenergic β2; 1 μM compound): 108%
M3 % inhibition @1 uM [1]: 95%

SMILES: O=C1COc2c(CCNCCN(C(=O)CCOCCc3cccc(CN4CCC5(CC4)CN(C(=O)c4cncc(Br)c4)CCO5)c3)C3CCCCC3)ccc(O)c2N1 [Example 102, 3-(3-((4-(5-Bromonicotinoyl)-1-oxa-4,9-diazaspiro[5.5]undecan-9-yl)methyl)phenethoxy)-N-cyclohexyl-N-(2-(2-(5-hydroxy-3-oxo-3,4-dihydro-2H-benzo[b][1,4]oxazin-8-yl)ethylamino)ethyl)propanamide]
percent of formoterol maximum response at 1 µM (Adrenergic β2): 108%
inhibition at 1 µM [1]: 99%

SMILES: O=C1COc2c(CCNCCN(C(=O)CCOCCc3cccc(CN4CCC5(CC4)CN(C(=O)Cc4c[nH]c6ccccc46)CCO5)c3)C3CCCCC3)ccc(O)c2N1 [Example 141, 3-(3-((4-(2-(1H-Indol-3-yl)acetyl)-1-oxa-4,9-diazaspiro[5.5]undecan-9-yl)methyl)phenethoxy)-N-cyclohexyl-N-(2-(2-(5-hydroxy-3-oxo-3,4-dihydro-2H-benzo[b][1,4]oxazin-8-yl)ethylamino)ethyl)propanamide]
percent of formoterol maximum response at 1 µM (Adrenergic β2): 108%
inhibition at 1 µM [1]: 96%
